Active and inactive are the calls of the source.
Experiments:
[1] = T. cruzi growth inhibition in host cells, dose response, cell-based, plate reader, dry powder, set 2 (AID 652275); type: functional
[2] = mouse embryonic fibroblast toxicity – cell-based, plate reader, dry powder, set 2, cytotoxicity control, dose response (AID 652280); type: functional; details: NIH3T3
[3] = HEK293T viability loss – cell-based, ATP luminescence, dry powder, Set6, cytotoxicity control, dose response (AID 743142); type: functional; details: HEK293
[4] = viability loss in A549 lung cancer cells – cell-based, CellTiter-Glo luminescence, dry powder, set 3, cytotoxicity control, dose response (AID 743146); type: functional
[5] = viability loss in MITF-independent A375 cells – cell-based, CellTiter-Glo luminescence, dry powder, set 2, counter-screen for MITF inhibitor project, dose response (AID 624489); type: functional; details: A-375;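 further: actives are compounds lowering A375 viability meaning general cytotoxicity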
[6] = liver cell line viability loss – HepG2, luminescence plate reader, powder samples, set 2, cytotoxicity control, dose response (AID 651860); type: functional, cell-based
[7] = molecular target: T1, Apoptotic protease-activating factor 1 (Homo sapiens, UniProt O14727); type: functional
T1 sequence (O14727 whole entry): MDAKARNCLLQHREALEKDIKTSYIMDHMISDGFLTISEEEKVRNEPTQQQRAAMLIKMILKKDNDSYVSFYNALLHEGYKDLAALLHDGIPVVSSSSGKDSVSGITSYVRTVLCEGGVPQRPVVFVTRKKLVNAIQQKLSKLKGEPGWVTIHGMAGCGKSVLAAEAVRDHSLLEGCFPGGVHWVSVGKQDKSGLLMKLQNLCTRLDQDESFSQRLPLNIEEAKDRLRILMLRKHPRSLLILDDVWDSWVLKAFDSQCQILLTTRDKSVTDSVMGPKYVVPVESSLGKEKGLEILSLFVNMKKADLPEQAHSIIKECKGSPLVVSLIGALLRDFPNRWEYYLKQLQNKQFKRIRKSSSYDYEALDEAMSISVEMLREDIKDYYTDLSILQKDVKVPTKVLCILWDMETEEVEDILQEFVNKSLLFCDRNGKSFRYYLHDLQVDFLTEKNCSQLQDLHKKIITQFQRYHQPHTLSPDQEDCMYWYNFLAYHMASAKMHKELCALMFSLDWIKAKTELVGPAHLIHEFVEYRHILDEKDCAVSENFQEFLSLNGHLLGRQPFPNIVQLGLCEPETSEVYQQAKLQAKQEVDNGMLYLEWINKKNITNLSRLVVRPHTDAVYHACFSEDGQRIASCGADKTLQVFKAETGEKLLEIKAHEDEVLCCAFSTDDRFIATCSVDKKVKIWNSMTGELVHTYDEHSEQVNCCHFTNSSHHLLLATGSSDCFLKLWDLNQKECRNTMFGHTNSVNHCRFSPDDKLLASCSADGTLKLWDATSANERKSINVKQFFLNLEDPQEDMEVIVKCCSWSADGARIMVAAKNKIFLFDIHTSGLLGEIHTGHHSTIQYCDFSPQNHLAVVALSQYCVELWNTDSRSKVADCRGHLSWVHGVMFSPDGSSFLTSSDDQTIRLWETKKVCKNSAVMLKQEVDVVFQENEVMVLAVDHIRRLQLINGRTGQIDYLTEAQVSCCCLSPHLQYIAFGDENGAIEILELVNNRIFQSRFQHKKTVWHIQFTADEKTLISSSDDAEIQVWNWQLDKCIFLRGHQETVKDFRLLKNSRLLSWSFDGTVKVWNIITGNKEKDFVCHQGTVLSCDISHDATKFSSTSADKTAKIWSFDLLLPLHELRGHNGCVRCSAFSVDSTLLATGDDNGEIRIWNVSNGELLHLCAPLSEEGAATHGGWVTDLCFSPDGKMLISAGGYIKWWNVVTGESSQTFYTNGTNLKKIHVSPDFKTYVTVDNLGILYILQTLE

Protein RecA = molecular target: T2, Protein RecA (Mycobacterium tuberculosis, UniProt P9WHJ3); test: Fluorescence Cell-Free Homogeneous Dose Retest to Identify Inhibitors of RecA-Intein Splicing Activity. [Related pubchem assays (depositor defined):AID2097, AID2223, AID489010, AID492950]; type: functional
T2 sequence (P9WHJ3 whole entry): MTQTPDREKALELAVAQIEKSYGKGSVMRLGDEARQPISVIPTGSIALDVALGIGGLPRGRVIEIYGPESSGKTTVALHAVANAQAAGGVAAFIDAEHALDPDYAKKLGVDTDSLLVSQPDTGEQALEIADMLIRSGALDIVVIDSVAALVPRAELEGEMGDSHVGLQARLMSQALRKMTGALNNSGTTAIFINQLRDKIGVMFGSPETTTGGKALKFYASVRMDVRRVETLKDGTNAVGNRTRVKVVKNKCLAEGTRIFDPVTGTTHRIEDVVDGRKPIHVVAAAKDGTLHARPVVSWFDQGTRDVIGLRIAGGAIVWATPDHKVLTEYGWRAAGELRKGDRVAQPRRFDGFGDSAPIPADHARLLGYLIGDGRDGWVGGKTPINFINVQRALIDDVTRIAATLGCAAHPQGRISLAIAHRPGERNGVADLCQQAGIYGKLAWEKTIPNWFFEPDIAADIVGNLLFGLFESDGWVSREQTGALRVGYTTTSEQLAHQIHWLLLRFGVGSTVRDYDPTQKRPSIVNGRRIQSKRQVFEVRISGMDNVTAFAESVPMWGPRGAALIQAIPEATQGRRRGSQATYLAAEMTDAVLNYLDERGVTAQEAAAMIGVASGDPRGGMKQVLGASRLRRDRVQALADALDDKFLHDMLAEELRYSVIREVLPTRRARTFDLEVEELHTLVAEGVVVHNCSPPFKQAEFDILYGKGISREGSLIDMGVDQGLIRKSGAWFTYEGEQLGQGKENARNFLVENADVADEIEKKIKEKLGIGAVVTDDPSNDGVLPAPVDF

[8] = molecular target: T3, Replicative DNA helicase DnaB (Mycobacterium tuberculosis, UniProt P9WMR3); test: DnaB intein splicing inhibitors, dose response, biochemical, cell-free fluorescence (AID 449749); type: functional
T3 sequence (P9WMR3 whole entry): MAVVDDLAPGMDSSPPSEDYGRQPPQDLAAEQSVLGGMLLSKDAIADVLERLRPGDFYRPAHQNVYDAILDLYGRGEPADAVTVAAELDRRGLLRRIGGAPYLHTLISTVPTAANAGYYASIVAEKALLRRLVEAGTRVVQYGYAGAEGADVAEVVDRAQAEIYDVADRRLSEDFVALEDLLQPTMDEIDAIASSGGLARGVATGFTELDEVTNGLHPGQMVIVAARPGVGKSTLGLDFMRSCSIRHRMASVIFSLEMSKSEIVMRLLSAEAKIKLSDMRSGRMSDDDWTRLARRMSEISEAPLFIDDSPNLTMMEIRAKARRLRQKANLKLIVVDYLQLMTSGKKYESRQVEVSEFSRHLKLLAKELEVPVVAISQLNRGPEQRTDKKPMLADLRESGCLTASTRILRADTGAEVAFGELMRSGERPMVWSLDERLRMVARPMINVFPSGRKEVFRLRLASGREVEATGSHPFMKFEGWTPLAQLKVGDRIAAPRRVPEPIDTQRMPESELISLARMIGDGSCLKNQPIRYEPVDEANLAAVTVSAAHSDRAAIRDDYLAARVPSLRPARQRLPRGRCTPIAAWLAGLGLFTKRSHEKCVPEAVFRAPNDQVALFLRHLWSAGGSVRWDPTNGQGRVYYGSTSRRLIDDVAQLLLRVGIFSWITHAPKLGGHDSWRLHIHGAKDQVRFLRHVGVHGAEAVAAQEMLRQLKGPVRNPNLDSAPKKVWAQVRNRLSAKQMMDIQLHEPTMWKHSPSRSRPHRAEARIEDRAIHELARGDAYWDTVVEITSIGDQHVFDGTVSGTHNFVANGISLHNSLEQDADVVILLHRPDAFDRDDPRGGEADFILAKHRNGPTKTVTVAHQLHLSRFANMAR

[9] = molecular target: Tyrosyl-DNA phosphodiesterase 2 (Homo sapiens, UniProt O95551); test: potency against TDP2 phosphodiesterase activity – biochemical, epi absorbance, IC50, dose response (AID 743297)
Caspase-6 = Caspase-6 (Homo sapiens, UniProt P55212); test: inhibition of CASP6 peptide cleavage – biochemical, VEID-R110 fluorescence, cherry-pick, dose response (AID 720632)
Caspase-7 = Caspase-7 (Homo sapiens, UniProt P55210); test: caspase-7 enzyme inhibition, selectivity check – biochemical, DEVD-R110 fluorescence, cherry-pick, selectivity assay for caspase-6 inhibitor project, dose response (AID 743295); type: functional
[10] = CTGF mRNA reduction in DLD1 cells – cell-based, DLD1 colon cancer, RT-qPCR, cherry-pick, dose response (AID 1053122); type: functional; details: Cancer cell lines
[11] = molecular target: Induced myeloid leukemia cell differentiation protein Mcl-1 (Homo sapiens, UniProt Q07820); type: functional
[12] = molecular target: Intestinal-type alkaline phosphatase (Mus musculus, UniProt P24822); test: PubChem AID 488785; type: functional
[13] = molecular target: Histone-lysine N-methyltransferase NSD2 (Homo sapiens, UniProt O96028); type: biochemical
[14] = molecular target: Intestinal-type alkaline phosphatase (Homo sapiens, UniProt P09923); test: inhibition of human intestinal alkaline phosphatase – biochemical, dose response (AID 488876); type: functional
[15] = molecular target: T4, Alkaline phosphatase, tissue-nonspecific isozyme (Homo sapiens, UniProt P05186); test: TNAP enzyme inhibition by screening hits, dose response, selectivity assay for mouse IAP inhibitor project, biochemical, human TNAP, uHTS hits (AID 488906); type: functional
T4 sequence (P05186 whole entry): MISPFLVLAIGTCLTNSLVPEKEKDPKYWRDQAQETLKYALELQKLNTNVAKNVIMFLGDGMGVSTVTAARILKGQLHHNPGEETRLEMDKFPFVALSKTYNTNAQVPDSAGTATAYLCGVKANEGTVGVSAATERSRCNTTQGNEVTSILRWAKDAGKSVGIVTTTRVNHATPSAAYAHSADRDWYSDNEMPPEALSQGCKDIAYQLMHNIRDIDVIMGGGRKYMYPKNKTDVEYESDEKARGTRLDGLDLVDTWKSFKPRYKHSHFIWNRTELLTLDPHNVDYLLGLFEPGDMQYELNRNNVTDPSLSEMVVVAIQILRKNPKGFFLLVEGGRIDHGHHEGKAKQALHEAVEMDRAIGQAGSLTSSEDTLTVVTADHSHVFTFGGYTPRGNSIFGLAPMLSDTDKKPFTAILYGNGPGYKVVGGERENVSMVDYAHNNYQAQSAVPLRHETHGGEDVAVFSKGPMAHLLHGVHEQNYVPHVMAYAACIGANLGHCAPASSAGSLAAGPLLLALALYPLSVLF

[16] = molecular target: 1-phosphatidylinositol 4,5-bisphosphate phosphodiesterase gamma-1 (Homo sapiens, UniProt P19174); test: Counterscreen for inhibitors of phospholipase C isozymes (PLC-B3): Fluorescence-based biochemical high throughput dose response assay to identify inhibitors of phospholipase C isozymes (PLC-gamma1).
[17] = molecular target: 1-phosphatidylinositol 4,5-bisphosphate phosphodiesterase beta-3 (Homo sapiens, UniProt Q01970); test: Fluorescence-based biochemical high throughput dose response assay to identify inhibitors of phospholipase C isozymes (PLC-B3).
ORF 73 = ORF 73 (Human herpesvirus 8, UniProt O40947); test: KSHV LANA DNA-binding disruption – biochemical, fluorescence polarization, cherry-picked samples, dose response (AID 504725); design: species or system Human gammaherpesvirus 8;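 further: fluorescence polarization of a labeled DNA duplex reporting LANA DNA binding; potency is for inhibitors that block LANA binding to the DNA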
[18] = loss of viability in HepG2 cells – cell-based, CellTiter-Glo, cherry-picked, cytotoxicity control for Shn3 inhibitor project, dose response (AID 624134); type: functional
[19] = reduction of Shn3 3'UTR-driven luciferase in osteoblasts – cell-based, Clone20 osteoblasts, firefly luciferase, cherry-picked, dose response (AID 624132); type: functional;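 further: firefly luciferase luminescence from reporter carrying the Shn3 3'UTR in osteoblasts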
[20] = Shn3 3'UTR reporter signal decrease – cell-based, Clone20 osteoblasts, firefly luciferase, cherry-pick, set 2, Schnurri-3 inhibitor project, dose response (AID 720490); type: functional;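 further: actives lower the luminescence signal as inhibitors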
[21] = non-specific 3'UTR reporter inhibition in Clone20-Shn3RL – cell-based, Renilla luciferase, cherry-picked, counter-screen for Shn3 inhibitor project, dose response (AID 624133); type: functional

Sequence of Intestinal-type alkaline phosphatase (Homo sapiens, UniProt P09923) (P09923 whole entry): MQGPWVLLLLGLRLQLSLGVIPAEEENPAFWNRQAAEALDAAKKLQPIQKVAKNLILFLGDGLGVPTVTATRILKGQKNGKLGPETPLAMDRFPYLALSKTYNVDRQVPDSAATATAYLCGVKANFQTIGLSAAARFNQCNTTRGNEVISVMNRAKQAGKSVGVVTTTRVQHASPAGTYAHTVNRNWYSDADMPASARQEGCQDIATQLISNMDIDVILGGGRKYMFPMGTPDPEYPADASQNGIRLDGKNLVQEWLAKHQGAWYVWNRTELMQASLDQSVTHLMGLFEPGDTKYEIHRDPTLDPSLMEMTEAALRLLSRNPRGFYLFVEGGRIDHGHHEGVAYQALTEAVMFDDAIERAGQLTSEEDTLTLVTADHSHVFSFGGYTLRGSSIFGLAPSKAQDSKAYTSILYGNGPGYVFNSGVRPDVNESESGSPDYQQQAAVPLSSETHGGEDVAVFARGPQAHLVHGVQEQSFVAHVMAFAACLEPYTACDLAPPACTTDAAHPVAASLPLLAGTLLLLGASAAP
Sequence of Caspase-6 (P55212 24-179 limits assumed): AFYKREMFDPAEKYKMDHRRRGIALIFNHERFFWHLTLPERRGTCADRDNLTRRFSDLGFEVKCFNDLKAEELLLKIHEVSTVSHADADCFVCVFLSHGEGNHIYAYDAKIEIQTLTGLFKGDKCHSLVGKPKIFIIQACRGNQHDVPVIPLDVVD
Sequence of Caspase-6 (P55212 194-293 limits assumed): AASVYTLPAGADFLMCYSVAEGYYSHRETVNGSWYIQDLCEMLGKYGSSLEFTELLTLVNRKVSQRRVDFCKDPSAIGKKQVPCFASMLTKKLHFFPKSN
Sequence of 1-phosphatidylinositol 4,5-bisphosphate phosphodiesterase gamma-1 (P19174 whole entry): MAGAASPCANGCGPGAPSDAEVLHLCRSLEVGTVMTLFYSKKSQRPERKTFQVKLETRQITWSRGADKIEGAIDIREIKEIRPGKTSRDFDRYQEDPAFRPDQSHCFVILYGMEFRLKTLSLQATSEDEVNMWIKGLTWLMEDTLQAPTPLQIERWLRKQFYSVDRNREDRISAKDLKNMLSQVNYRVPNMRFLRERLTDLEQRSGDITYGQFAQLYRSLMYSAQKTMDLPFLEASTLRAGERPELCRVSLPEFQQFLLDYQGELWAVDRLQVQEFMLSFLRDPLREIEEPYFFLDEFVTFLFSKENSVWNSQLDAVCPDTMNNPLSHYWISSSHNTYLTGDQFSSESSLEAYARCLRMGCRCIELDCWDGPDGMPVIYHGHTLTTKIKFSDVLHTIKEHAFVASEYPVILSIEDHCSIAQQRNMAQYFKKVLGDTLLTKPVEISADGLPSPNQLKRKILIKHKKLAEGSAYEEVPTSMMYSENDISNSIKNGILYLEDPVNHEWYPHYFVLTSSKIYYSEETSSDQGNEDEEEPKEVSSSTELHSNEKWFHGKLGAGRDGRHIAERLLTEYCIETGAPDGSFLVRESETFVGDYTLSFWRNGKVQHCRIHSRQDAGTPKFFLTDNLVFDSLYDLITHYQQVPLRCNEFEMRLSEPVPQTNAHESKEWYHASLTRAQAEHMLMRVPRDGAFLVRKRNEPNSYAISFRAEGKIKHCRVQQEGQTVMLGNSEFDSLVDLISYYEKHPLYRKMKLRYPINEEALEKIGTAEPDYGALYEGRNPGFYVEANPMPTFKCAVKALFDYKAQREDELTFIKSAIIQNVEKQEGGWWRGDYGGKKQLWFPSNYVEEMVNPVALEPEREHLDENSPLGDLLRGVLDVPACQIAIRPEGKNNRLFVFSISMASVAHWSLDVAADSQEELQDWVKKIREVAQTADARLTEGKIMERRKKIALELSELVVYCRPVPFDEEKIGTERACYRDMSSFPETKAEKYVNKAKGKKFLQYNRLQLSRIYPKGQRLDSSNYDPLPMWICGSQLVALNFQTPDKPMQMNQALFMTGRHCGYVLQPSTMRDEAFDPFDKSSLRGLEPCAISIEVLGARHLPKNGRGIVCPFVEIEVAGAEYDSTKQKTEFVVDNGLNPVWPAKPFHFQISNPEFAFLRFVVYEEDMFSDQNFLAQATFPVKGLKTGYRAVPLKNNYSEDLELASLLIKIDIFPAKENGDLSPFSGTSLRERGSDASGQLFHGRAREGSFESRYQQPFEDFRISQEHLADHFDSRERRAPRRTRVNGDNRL
Sequence of ORF 73 (O40947 whole entry): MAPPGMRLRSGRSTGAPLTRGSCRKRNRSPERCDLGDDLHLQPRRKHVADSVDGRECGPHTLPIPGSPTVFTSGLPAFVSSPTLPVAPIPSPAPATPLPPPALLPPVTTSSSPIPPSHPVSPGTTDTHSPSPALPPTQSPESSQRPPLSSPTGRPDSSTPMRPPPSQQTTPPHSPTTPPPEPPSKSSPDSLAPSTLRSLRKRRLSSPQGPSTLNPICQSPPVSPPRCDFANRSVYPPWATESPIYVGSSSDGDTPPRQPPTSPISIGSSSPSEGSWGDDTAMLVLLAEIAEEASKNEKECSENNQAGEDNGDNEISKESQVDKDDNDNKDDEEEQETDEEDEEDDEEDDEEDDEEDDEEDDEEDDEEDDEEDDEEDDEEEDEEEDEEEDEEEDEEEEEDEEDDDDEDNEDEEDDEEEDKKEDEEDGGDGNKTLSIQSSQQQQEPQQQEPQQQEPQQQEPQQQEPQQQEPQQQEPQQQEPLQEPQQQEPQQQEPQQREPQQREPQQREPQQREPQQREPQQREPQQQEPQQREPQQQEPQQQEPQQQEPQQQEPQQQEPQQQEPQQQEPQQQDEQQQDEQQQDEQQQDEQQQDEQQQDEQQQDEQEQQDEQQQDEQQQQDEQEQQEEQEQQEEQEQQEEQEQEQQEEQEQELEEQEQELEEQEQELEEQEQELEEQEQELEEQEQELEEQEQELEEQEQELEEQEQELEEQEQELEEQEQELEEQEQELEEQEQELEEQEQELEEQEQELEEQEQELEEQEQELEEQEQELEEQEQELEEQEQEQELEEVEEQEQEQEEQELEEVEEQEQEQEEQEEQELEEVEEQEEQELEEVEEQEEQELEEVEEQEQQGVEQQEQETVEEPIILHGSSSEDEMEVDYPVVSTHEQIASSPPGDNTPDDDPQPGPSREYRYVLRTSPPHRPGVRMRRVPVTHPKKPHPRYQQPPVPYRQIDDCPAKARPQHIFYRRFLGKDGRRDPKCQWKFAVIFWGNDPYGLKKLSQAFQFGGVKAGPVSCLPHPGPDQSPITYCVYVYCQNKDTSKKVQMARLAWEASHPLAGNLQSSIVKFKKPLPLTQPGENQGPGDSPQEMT
Sequence of 1-phosphatidylinositol 4,5-bisphosphate phosphodiesterase beta-3 (Q01970 whole entry): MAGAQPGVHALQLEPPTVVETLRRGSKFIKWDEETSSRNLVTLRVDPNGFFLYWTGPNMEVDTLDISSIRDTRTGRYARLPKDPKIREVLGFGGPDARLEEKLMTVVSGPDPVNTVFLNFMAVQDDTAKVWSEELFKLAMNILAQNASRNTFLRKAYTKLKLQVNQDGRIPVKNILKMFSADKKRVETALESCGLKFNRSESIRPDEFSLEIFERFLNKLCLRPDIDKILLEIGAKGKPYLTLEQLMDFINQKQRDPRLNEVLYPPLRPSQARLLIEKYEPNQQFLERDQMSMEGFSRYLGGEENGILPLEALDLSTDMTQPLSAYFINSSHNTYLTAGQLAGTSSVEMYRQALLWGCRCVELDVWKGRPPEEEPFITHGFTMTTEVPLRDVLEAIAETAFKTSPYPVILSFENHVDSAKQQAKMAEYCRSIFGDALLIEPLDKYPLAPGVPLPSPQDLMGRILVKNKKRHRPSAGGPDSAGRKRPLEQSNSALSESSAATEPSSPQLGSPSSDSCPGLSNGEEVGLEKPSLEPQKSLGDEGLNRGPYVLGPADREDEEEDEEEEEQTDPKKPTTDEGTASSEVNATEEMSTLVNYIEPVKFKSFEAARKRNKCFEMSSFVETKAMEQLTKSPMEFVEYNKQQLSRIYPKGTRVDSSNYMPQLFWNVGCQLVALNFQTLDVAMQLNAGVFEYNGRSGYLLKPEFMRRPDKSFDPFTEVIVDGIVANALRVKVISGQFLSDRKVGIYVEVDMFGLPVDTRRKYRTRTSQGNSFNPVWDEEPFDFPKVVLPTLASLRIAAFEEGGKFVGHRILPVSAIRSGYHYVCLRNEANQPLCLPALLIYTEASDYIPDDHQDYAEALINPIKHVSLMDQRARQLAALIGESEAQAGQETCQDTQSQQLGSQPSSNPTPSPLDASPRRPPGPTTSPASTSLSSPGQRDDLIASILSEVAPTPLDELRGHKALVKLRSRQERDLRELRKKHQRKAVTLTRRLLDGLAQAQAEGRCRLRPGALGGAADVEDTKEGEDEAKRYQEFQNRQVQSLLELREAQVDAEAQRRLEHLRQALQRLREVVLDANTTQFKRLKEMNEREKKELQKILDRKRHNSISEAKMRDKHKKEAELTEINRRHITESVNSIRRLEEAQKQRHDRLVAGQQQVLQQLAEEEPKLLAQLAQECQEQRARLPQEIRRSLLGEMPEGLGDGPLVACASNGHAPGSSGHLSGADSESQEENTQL
Sequence of Caspase-7 (P55210 24-198 limits assumed): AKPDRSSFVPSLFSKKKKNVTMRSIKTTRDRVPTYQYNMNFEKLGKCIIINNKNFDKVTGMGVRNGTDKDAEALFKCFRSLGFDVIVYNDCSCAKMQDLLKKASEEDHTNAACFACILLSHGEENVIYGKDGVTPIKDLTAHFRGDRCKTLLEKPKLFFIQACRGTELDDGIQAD
Sequence of Caspase-7 (P55210 207-303 limits assumed): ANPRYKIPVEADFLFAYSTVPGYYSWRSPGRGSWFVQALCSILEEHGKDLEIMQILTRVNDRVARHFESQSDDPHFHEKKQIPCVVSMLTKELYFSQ
Sequence of Induced myeloid leukemia cell differentiation protein Mcl-1 (Q07820 whole entry): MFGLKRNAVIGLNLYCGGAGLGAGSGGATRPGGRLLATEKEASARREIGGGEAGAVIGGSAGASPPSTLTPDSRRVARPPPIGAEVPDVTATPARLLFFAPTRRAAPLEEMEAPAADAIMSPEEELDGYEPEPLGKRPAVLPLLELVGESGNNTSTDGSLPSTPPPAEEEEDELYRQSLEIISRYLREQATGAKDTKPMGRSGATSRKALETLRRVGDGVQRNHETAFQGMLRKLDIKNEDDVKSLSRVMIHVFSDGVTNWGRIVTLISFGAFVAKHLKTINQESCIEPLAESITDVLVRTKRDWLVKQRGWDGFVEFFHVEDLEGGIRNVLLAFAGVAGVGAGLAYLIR

CC(C)(O)C#Cc1cccc(-c2nc(C(=O)NCc3ccc4c(c3)OCO4)cc3c2[C@@H](CCO)N([S+]([O-])C(C)(C)C)C3)c1 (stereo not given in full)
AC50 [1]: 3.93 µM (active)
AC50 [2]: 12.1 µM (active)

O=C(CCNC(=O)c1ccc(Cl)cc1)N[C@@H]1CCCc2ccccc21
AC50 [3]: 4.12 µM (active)
AC50 [4]: > 52 µM (inactive)

C=CCNC1=C(NCCCN2CCOCC2)C(=O)c2ccccc2C1=O
AC50 [5]: > 70 µM (inactive)

O=C(O)[C@H]1CCCC[C@H]1C(=O)NC(CN1C(=O)c2ccccc2C1=O)c1ccccc1 (stereo not given in full)
AC50 [6]: > 52 µM (inactive)

Cc1ccc(C(C[N+](=O)[O-])c2c(C)[nH]n(-c3ccccc3)c2=O)cc1 (stereo not given)
IC50 [7]: 24.1 µM (active)
EC50 (Protein RecA): 3.16 µM (active)
AC50 [8]: 3.52 µM (active)
IC50 [9]: 24.2 µM (inactive)

O=C(O)CCc1ccc(-c2ccc(Br)cc2)n1CC(=O)O
AC50 (Caspase-6): 3.5 µM (active)
AC50 (Caspase-7): > 70 µM (inactive)

C[C@@H]1CN([C@H](C)CO)S(=O)(=O)c2ccc(C#Cc3cccc(F)c3)cc2O[C@@H]1CN(C)S(=O)(=O)c1cn(C)cn1
AC50 [10]: 3.47 µM (active)

O=C(O)CCCN1C(=O)/C(=C/C=C/c2ccco2)SC1=S
IC50 [11]: 19.3 µM (not active)
IC50 [12]: 1.4 µM (active)
AC50 [13]: 2.42 µM (active)
IC50 [14]: > 100 µM (inactive)
IC50 [15]: 39.1 µM (active)
IC50 [16]: > 122 µM (inactive)
IC50 [17]: > 122 µM (inactive)
AC50 (ORF 73): 175 µM (active)

CCn1c(CNC(=O)c2cc(OC)c(OC)c(OC)c2)cc2cc(C)ccc21
AC50 [18]: > 70 µM (inactive)
AC50 [19]: 2.52 µM (active)
AC50 [20]: 3.79 µM (active)
AC50 [21]: 13.4 µM (active)

From ChEMBL document CHEMBL1201862, “PubChem BioAssay data set” (2004)
